Assay results reported in the NIST ThermoML archive (doi:10.1016/j.jct.2013.10.016).
Numbers after ± are expanded uncertainties.

Test: wn = mass fraction of the nth substance listed
Conditions: Wilhelmy plate method

| surface tension liquid-gas (293.2 K, w1 = 0.2) | surface tension liquid-gas (293.2 K, w1 = 0.25) | surface tension liquid-gas (293.2 K, w1 = 0.3) | surface tension liquid-gas (303.2 K, w1 = 0.2) | surface tension liquid-gas (303.2 K, w1 = 0.25) | surface tension liquid-gas (303.2 K, w1 = 0.3) | surface tension liquid-gas (313.2 K, w1 = 0.2) | surface tension liquid-gas (313.2 K, w1 = 0.25) | surface tension liquid-gas (313.2 K, w1 = 0.3) | surface tension liquid-gas (323.2 K, w1 = 0.2) | surface tension liquid-gas (323.2 K, w1 = 0.25) | surface tension liquid-gas (323.2 K, w1 = 0.3) | SMILES |
| --- | --- | --- | --- | --- | --- | --- | --- | --- | --- | --- | --- | --- |
| 65.1 ± 2 mN/m | 64.6 ± 2 mN/m | 62.8 ± 2 mN/m | 64.4 ± 2 mN/m | 62.7 ± 2 mN/m | 61.3 ± 2 mN/m | 63.9 ± 2 mN/m | 61.8 ± 2 mN/m | 60.4 ± 2 mN/m | 61.8 ± 2 mN/m | 59.6 ± 2 mN/m | 58.2 ± 2 mN/m | OCCNCCO [diethanolamine] + O |
| 62.6 ± 2 mN/m | 61.2 ± 2 mN/m | 60.3 ± 2 mN/m | 61.8 ± 2 mN/m | 60.6 ± 2 mN/m | 59.5 ± 2 mN/m | 60.2 ± 2 mN/m | 59.2 ± 2 mN/m | 58 ± 2 mN/m | 58.7 ± 2 mN/m | 57.7 ± 2 mN/m | 56.5 ± 2 mN/m | NCCO [2-aminoethan-1-ol] + O |
